This is an account of results in article PMC6504873, “High-throughput screening of the Plasmodium falciparum cGMP-dependent protein kinase identified a thiazole scaffold which kills erythrocytic and sexual stage parasites” (Scientific Reports, 2019).

For one series, the target named is T1, WT PfPKG (Plasmodium falciparum, UniProt Q8I719).
T1 construct: recombinant full length wild type (WT) PfPKG; His6 (N); host or cells: E. coli BL21
In words: Kinase Glo enzymatic assay, recombinant WT PfPKG. In kind it is biochemical, P. falciparum. The settings on record: WT PfPKG (μM), recombinant WT PfPKG. The procedure:
To identify new PKG inhibitor scaffolds, the 1.7 million GlaxoSmithKline Full Diversity collection was tested at a single final concentration of 10 μM against recombinant full length wild type (WT) PfPKG using a Kinase Glo-based assay (Promega). The results gave a robust Z′ mean value of 0.85. At an average statistical cut-off of 30%, 20,174 primary hits were identified with an overall hit rate of 1%. Fresh samples of these primary hits were tested in duplicate against WT PfPKG and also against human PKGIα (HuPKGIα) (Supplementary Fig. 1) at a final concentration of 10 μM (confirmation step).
(§1) Protein production was outsourced to the Division of Signal Transduction Therapy, University of Dundee. Briefly, the pTRChis expression vectors (Invitrogen) containing an N-terminally His6-tagged PfPKG wildtype and T618Q were used to transform BL21 cells (protocol adapted from[23]). The cells were grown at 37 °C until the OD600 was 0.4–0.6 then the temperature was reduced to 15 °C and the cells were induced with 250 µM IPTG and grown for a further 16–18 hours before harvesting. The His6-PfPKG was purified on Cobalt agarose followed by gel filtration and the protein was dialysed into 25 mM Hepes pH 7.5, 0.1 mM EGTA, 150 mM NaCl, 50% glycerol and 2 mM DTT.
(§2) Initial optimization of the PKG assay was performed manually in 384-well plates and analysed with GraFit 7. The buffer for all assays was 25 mM HEPES pH 7.3 (GIBCO), 10 mM MgCl2 (Sigma), 2 mM DTT (Sigma), 0.01 mM cGMP (Sigma), 0.1 mg/ml BSA (Ambion). Enzymatic activity was tested using a luminescence-based kit (Promega KinaseGlo). Addition of the first reagent depletes the unused ATP and addition of the second reagent converts ADP (product of the kinase reaction) to ATP, which is then measured through a luciferin/luciferase reaction. The amount of luminescence is directly proportional to ATP turnover by the kinase. The kit was chosen because it can be miniaturized to small volumes (i.e. 4 µl) in 1536-well plates, for use in HTS.
(§3) We used PKA peptide substrate (SCP0212, Sigma-Aldrich) for WT and TQ PfPKG, dissolved in milliQ water at a final concentration of 5 mM, and Long S6 peptide substrate (produced at the University of Dundee, sequence […]) for HuPKGIα, dissolved in water at a final concentration of 30 mM.
(§4) We calculated the Michaelis-Menten (Km) constant for ATP and peptide substrate (PKA or Long S6) for all enzymes using GraphPad Prism (Supplementary Figs 2 and 3 and Supplementary Table 3). In order to identify different types of PKG inhibitors, including ATP competitive or non-competitive inhibitors, as well as inhibitors that bind to the peptide substrate pocket, we performed all assays using ATP and peptide substrate at a concentration equal to the Km. We also determined enzyme activity by calculating ATP turnover (Kcat) over the Km (Supplementary Table 3). The Kcat was calculated as (Vmax*slope)/[E] where Vmax is the maximum velocity and [E] is the concentration of the enzyme.
(§5) The plates containing the compounds were prepared at GSK in Upper Providence or Stevenage. Compounds were tested at a single final concentration of 10 µM or in a dose response with a range of concentrations starting from 100 μM to 1.6 nM (1 in 3 serial dilutions). Compounds were dispensed in the plates at the required concentration in a 40 nl volume. All plates (1536-well white Greiner) contained 40 nl of DMSO in lanes 11 and 12 (control 1, 100% enzyme activity) and were empty in lanes 35 and 36 (control 2, 0% enzyme activity). The plates were removed from −20 °C 1 hour before starting the assay. Using a Multidrop Combi dispenser (Thermo Scientific), 2 µl of the buffer containing ATP and the substrate were added to all wells then 2 µl of buffer only were added to column 35 and 36. Finally 2 µl of buffer containing the enzyme were dispensed in all the plate wells except for lanes 35 and 36. […]

Series [1] in a line: AM_Perm (artificial membrane permeability). It is filed as in vitro ADME. The settings on record: PAMPA. On the technique in general: In PAMPA a lipid-coated filter parts donor from acceptor wells.
In a further series the target is T2, TQ PfPKG (PfPKG_T618Q) (Plasmodium falciparum, UniProt Q8I719, T618Q).
T2 construct: His6 (N); host or cells: E. coli BL21
The series can be described thus: Kinase Glo enzymatic assay, gatekeeper mutant TQ PfPKG. In kind it is biochemical, P. falciparum. The procedure: Taking advantage of the availability of more than 3,000 thiazole derivatives among the GSK compound collection, cluster 3 was thoroughly investigated for potent and selective inhibitors of WT PfPKG. […] We explored the binding mode by also testing compounds on the gatekeeper mutant enzyme TQ PfPKG. […] These two time points were chosen to give an indication of the speed of kill of the compounds. […] A preliminary safety test was performed on human AuroraB and LCK kinases which often underpin toxicity issues. […] Further assays for compound characterization included determination of solubility and cytotoxicity (HepG2 inhibition). Thiazoles have been previously identified as human BRaf inhibitors that are used to treat melanoma.
as §1, §2, §3, §4
as §5, with “36.” for “36. Finally 2 µl of buffer containing the enzyme were dispensed in all the plate wells except for lanes 35 and 36.”
(Kinase-Glo measures the ATP left after a reaction by luminescence.)

A short description of the next series: PFI. It is filed as physicochemical. The procedure:
Dose response assays were performed in duplicate on WT PfPKG, HuPKGIα and a mock assay performed in the absence of enzyme (the counterscreen). Comparison of the PfPKG and HuPKGIα IC50 values gave information on selectivity and the counterscreen identified luminescent false positive compounds (see Materials and Methods). Cytotoxicity assays were also performed using a human hepatoma cell line (HepG2)[30]. […] This set of compounds was clustered by similarity using a complete-linkage algorithm and a threshold of 0.55[31]. A total of 79 clusters and 54 singletons were obtained.

Series [2] is described as follows: ChromlogD (lipophilicity).
For the next series, the target named is PI3KD (Homo sapiens, UniProt O00329). In words: Preliminary safety test on human PI3KD kinase. It is filed as biochemical.
Another series deals with HepG2 cells. In words: Cytotoxicity assay (CellTiter-Glo). In kind it is cell-based. The settings on record: Homo sapiens, HepG2, read-out: HepG2 (μM). The procedure: Cytotoxicity assays were performed on HepG2 cells as previously described. HepG2 cells were removed from a T-175 TC flask using 5 mL Eagle’s MEM (containing 10% FBS, 1% NEAA, 1% penicillin/streptomycin) and dispersed in the medium. Seeding density was checked to ensure that new mono-layers were not more than 50% confluent at the time of harvesting. Cells were added to 500 mL of the same medium at a final density of 1.2 × 10^5 cells/mL. They were then dispensed (25 μL, about 3,000 cells per well) into 384-well clear-bottom plates using a Multidrop Combi dispenser. Test compounds (250 nL) were dispensed into the plates with an EchoH liquid handler prior to addition of the cells. Plates were incubated for 48 h at 37 °C, 5% CO2. After incubation, plates were equilibrated at room temperature for 30 minutes before proceeding to develop the luminescent signal. The CellTiter-GloH Reagent was allowed to equilibrate at room temperature for 30 minutes and added to the plates (25 μL per well) using a Multidrop Combi dispenser. Plates were left for 10 minutes at room temperature for stabilization and then read using a Perkin Elmer ViewLux.

Series [3] is described as follows: Aqueous kinetic solubility assay (CAD). The settings on record: several values in a cell = replicates. It is filed as physicochemical. The procedure: […] of 10 mM DMSO compound solution is diluted to 100 μl with pH7.4 phosphate buffered saline, equilibrated for 1 hour at room temperature and filtered through Millipore MultiscreenHTS-PCF filter plates (MSSL BPC). The filtrate is quantified by suitably calibrated Charged Aerosol Detector[56].

The subject of a further series is P. berghei. On the set-up: method as in PMID 28446690. The settings on record: P. berghei mouse model ref 44; cited from earlier work.
Another series relates to P. falciparum. Set-up: method as in PMID 28446690. To be noted: P. falciparum mouse model ref 44; cited from earlier work.
Details of series [4]: method as in PMID 24958809. To be noted: in the clinic ref 39; cited from earlier work.

SMILES strings stand for the structures. Values after ≈ are worked out from the molar mass of the structure shown.

T2 sequence (Q8I719 whole entry T618Q): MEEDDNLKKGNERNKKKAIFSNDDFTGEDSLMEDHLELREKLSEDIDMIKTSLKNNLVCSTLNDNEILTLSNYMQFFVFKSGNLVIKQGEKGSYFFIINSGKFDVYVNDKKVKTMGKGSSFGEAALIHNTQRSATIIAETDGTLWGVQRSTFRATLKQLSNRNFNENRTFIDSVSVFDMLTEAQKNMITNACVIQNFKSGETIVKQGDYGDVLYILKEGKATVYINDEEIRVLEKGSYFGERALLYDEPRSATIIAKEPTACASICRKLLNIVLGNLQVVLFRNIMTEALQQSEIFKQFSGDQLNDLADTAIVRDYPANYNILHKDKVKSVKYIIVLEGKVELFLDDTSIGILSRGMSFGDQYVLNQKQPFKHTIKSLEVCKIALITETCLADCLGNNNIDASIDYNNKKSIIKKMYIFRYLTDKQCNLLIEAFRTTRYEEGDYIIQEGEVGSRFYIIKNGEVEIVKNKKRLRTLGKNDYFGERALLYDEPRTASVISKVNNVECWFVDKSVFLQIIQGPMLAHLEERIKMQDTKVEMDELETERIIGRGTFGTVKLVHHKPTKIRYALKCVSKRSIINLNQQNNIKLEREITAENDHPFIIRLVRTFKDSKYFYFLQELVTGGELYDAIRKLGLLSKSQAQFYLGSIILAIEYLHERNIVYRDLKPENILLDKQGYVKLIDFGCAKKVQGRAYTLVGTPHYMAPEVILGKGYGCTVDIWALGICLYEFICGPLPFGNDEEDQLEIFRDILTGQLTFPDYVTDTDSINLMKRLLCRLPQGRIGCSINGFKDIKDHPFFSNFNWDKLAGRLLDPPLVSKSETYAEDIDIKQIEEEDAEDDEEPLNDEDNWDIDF
T1 sequence (Q8I719 whole entry): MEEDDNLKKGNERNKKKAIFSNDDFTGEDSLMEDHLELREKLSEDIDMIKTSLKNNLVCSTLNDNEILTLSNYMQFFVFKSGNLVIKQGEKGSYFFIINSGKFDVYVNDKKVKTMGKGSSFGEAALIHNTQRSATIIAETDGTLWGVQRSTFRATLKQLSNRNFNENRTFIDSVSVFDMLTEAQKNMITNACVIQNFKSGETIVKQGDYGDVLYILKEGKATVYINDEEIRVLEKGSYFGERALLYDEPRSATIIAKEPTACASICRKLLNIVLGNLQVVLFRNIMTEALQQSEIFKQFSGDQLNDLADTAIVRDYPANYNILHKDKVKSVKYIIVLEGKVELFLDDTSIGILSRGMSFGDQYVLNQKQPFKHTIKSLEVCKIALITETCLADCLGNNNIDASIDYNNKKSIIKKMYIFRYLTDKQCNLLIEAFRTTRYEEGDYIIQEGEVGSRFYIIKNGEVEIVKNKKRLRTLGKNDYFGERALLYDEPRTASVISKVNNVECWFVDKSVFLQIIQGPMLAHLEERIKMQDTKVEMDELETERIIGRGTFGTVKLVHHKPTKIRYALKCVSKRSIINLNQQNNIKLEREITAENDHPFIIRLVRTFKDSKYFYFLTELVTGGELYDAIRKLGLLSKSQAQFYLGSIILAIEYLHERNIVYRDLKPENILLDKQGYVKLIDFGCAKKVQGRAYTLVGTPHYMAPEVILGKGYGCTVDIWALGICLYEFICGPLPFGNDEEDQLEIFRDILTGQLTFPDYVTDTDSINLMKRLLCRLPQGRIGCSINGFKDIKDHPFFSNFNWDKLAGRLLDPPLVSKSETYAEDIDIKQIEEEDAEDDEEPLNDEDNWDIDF
Chain of PI3KD (O00329 whole entry): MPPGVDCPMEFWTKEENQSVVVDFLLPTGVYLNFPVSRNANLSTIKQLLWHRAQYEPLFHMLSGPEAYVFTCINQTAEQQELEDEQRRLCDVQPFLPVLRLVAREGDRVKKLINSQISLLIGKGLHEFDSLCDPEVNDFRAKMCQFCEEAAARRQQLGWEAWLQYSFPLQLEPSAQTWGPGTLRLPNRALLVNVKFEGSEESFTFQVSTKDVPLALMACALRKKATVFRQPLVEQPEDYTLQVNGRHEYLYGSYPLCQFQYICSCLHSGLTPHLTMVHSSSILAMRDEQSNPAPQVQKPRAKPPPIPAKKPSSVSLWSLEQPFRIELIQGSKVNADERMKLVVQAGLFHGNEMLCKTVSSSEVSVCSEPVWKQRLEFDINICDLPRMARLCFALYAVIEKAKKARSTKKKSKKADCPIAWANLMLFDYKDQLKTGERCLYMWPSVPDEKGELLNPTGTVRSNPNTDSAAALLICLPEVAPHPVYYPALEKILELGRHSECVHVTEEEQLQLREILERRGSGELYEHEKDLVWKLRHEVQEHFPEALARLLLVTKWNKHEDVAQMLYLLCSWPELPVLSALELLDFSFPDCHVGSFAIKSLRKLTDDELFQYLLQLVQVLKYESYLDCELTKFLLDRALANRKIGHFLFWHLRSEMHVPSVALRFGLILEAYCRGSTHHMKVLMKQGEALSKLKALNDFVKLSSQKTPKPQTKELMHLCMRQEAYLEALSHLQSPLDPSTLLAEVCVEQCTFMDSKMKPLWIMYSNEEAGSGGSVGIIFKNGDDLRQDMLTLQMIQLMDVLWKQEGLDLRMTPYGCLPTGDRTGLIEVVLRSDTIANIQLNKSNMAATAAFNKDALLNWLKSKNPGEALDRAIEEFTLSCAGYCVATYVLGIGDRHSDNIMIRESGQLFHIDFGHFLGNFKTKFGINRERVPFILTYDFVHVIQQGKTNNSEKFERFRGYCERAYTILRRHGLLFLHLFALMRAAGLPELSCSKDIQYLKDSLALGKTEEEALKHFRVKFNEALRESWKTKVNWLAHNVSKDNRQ
Chain of PI3KD (P27986 whole entry partner): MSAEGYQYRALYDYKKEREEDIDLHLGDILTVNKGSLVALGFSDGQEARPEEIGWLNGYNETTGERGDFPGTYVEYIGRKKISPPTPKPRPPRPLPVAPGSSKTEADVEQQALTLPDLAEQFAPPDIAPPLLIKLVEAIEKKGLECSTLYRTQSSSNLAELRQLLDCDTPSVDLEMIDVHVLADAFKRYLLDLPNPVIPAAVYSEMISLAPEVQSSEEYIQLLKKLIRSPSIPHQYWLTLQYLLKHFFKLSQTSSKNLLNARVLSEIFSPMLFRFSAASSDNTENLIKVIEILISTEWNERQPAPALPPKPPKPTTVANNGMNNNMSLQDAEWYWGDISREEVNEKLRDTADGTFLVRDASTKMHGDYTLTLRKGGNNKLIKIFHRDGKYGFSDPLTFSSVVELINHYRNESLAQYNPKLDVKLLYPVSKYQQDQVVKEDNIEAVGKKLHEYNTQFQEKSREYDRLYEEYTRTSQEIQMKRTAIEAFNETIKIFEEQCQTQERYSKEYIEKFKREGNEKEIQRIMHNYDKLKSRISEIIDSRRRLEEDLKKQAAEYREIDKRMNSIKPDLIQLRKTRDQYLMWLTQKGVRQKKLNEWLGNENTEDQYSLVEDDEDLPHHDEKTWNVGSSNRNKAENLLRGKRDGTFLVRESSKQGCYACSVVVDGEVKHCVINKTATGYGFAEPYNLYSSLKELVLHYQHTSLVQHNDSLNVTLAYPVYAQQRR

The term chromatographic logD denotes lipophilicity estimated from chromatographic retention. Low readings indicate lower lipophilicity, high ones higher lipophilicity. As usually defined, the solubility is the dissolved amount per volume that the medium holds. Low readings indicate a poorly soluble substance, high ones a readily soluble substance. As for `Nc1nccc(-c2c(-c3ccc(F)cc3)ncn2C2CCNCC2)n1` [Compound 1], the IC50 on WT PfPKG was 0.066 µM; at TQ PfPKG (PfPKG_T618Q), > 100 µM; on PI3KD, > 50.1 µM; in the series on HepG2 cells it was > 100 µM. The molecule further had an AM Perm in series [1] of 91 nm/s. The molecule also registered a PFI in the series “PFI” of 3.8. The chromatographic logD in [2] came to 0.8. The solubility at 1 h in series [3] (pH 7.4, aqueous buffer, kinetic from dmso stock) came out at 155 µM (≈ 52.5 µg/mL); in series [3] it was 291 µM (≈ 98.5 µg/mL).
Take `CS(=O)(=O)c1ccc(-c2cnc(N)c(-c3ccc(C(F)(F)F)nc3)c2)cc1` [MMV390048]: the values for the ED90 in the series with P. berghei and with P. falciparum were 1.1 mg/kg and 0.57 mg/kg, respectively.
`CC(C)(C)c1nc(-c2cccc(NS(=O)(=O)c3c(F)cccc3F)c2F)c(-c2ccnc(N)n2)s1` [dabrafenib]: in [4], the “patients experiencing severe adverse events” value is 24%.
